Results published in patent publication US7105534B2, “Imidazo[1,2-α]pyridine ether compounds as ion channel modulators” (Cardiome Pharma Corp., priority 2000, dated 2006).

Target: T1, hH1 Na+ current (Homo sapiens, UniProt Q14524)
T1 construct: expressed in transfected cells; host or cells: HEK cells, transient transfection, vector pCDNA3
Assay: Patch-clamp inhibition of cloned ion channel current in transfected HEK cells: Na
Assay type: cell-based
Conditions: peak hH1 Na+ current, -100 mV to -30 mV
Procedure: The relevant cloned ion channels (e.g. cardiac hH1, Kv1.4, Kv1.5, Kv4.2, Kv2.1, HERG etc.) are studied by transient transfection into HEK cells using the mammalian expression vector pCDNA3. Transfections for each channel type are carried out separately to allow individual study of the ion channel of interest. Cells expressing channel protein are detected by cotransfecting cells with the vector pHook-1 (Invitrogen, San Diego, Calif., USA). […] Equal concentrations of individual channel and pHook DNA are incubated with 10× concentration of lipofectAce in Modified Eagle's Medium (MEM, Canadian Life Technologies) and incubated with parent HEK cells plated on 25 mm culture dishes. After 3–4 hours the solution is replaced with a standard culture medium plus 20% fetal bovine serum and 1% antimycotic. Transfected cells are maintained at 37C in an air/5% CO2 incubator in 25 mm Petri dishes plated on glass coverslips for 24–48 hours to allow channel expression to occur. 20 min prior to experiments, cells are treated with beads coated with phOX. After 15 min, excess beads are […] off with cell culture medium and cells which had beads stuck to them are used for electrophysiological tests.
For whole-cell recording the control pipette filling solution contained (in mM): KCl, 130; EGTA, 5; MgCl2, 1; HEPES, 10; Na2ATP, 4; GTP, 0.1; and is adjusted to pH 7.2 with KOH. The control bath solution contained (in mM): NaCl, 135; KCI, 5; sodium acetate, 2.8; MgCl2, 1; HEPES, 10; CaCl2, 1; and is adjusted to pH 7.4 with NaOH. The test ion channel modulating compound is dissolved to 10 mM stock solutions in water and used at concentrations between 0.5 and 100 μM.
Coverslips containing cells are removed from the incubator before experiments and placed in a superfusion chamber (volume 250 μl) containing the control bath solution at 22C to 23C. All recordings are made via the variations of the patch-clamp technique, using an Axopatch 200A amplifier (Axon Instruments, CA). Patch electrodes are pulled from thin-walled borosilicate glass (World Precision Instruments; FL) on a horizontal micropipette puller, fire-polished, and filled with appropriate solutions. Electrodes had resistances of […] when filled with control filling solution. Analog capacity compensation is used in all whole cell measurements. In some experiments, leak subtraction is applied to data. Membrane potentials have not been corrected for any junctional potentials that arose between the pipette and bath solution. Data are filtered at 5 to 10 kHz before digitization and stored on a microcomputer for later analysis using the pClamp6 software (Axon Instruments, Foster City, Calif.). Due to the high level of expression of channel cDNA's in HEK cells, there is no need for signal averaging. The average cell capacitance is quite small, and the absence of ionic current at negative membrane potentials allowed faithful leak subtraction of data.
The concentration-response curves for changes in peak and steady-state current produced by the test compound are computer-fitted to the Hill equation: f=1−1/[1+([…])^n] [1]
where f is the fractional current (f=Idrug/Icontrol) at drug concentration [D]; IC50 is the concentration producing half-maximal inhibition and n is the Hill coefficient.
Compounds of the present invention may be evaluated by this method. […] Block is determined from the decrease in peak hH1 Na^+ current, or in steady-state Kv1.5 and integrated Kv4.2 current in the presence of drug. To record Na^+ current, cells are depolarized from the holding potential of −100 mV to a voltage of −30 mV for 10 ms to fully open and inactivate the channel. To record Kv1.5 and Kv4.2 current, cells are depolarized from the holding potential of −80 mV to a voltage of +60 mV for 200 ms to fully open the channel. Currents are recorded in the steady-state at a range of drug concentrations during stimulation every 4 s. […]

T1 sequence (Q14524 whole entry): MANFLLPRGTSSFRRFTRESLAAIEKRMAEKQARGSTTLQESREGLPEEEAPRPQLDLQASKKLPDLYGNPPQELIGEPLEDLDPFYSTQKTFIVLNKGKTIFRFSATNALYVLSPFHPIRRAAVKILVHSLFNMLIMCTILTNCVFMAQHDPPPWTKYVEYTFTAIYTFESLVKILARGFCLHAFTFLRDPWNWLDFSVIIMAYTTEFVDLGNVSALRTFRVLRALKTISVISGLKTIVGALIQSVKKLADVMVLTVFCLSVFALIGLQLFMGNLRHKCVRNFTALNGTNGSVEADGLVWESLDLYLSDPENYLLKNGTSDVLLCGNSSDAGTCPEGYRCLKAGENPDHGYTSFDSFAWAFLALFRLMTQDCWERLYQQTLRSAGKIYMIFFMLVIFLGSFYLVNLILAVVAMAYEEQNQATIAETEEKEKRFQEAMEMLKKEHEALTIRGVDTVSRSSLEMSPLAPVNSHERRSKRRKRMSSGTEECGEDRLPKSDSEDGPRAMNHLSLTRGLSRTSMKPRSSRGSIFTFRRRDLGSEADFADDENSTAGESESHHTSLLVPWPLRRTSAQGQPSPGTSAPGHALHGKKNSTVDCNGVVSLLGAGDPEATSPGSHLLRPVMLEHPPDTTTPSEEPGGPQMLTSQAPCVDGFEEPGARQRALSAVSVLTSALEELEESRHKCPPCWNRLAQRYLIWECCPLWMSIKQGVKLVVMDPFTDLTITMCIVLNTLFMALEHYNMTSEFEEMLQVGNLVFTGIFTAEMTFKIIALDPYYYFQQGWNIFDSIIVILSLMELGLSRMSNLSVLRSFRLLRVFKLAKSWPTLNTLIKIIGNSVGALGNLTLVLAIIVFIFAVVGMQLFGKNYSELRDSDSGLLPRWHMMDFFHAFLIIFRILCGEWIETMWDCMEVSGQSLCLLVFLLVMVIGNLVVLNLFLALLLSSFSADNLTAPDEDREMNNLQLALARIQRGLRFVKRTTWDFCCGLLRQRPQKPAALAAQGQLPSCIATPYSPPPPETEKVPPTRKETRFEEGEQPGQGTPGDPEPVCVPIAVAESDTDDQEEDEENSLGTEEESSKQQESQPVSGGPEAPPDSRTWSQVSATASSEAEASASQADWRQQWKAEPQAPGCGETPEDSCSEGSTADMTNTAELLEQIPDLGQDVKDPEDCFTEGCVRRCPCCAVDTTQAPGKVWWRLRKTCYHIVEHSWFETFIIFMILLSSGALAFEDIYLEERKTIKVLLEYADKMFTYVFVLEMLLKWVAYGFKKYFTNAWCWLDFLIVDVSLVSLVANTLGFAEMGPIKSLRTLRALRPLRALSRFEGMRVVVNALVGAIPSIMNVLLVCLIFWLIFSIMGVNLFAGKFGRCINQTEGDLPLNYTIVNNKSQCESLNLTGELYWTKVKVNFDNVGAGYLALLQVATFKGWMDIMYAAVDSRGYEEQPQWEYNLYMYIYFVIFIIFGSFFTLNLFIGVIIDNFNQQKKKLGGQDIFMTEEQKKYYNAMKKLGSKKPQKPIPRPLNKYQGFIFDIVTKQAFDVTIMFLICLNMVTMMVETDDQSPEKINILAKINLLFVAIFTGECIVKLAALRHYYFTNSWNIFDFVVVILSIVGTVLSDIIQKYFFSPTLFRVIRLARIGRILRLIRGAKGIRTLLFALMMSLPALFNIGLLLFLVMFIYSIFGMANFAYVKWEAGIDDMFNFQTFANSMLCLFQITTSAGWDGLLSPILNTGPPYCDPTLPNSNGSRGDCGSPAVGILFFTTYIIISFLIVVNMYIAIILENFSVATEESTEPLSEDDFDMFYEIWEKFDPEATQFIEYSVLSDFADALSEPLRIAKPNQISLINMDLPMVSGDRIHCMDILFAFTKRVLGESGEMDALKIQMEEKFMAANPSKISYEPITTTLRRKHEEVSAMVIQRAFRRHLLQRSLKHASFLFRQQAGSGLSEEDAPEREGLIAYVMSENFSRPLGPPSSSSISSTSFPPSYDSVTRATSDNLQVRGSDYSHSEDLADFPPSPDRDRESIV

## COc1ccc(CCCOc2cccn3cc(C)nc23)cc1OC [Compound 3, 8-[3-(3,4-DIMETHOXYPHENYL)PROPOXY]-2-METHYLIMIDAZO[1,2-α]PYRIDINE MONOHYDROCHLORDE]
  IC50: 94 µM
